Assay results reported in ChEMBL document CHEMBL3885861, “Open TG-GATES”.

Organism: Rattus norvegicus
Assay: Open TG-GATES - Regimen: Single
Type: toxicity, organism-based, Sprague-Dawley
Parameters: regimen Single, gender Male, age 6 weeks
Conditions: in vivo, po, 150 mg/kg, route gavage, dose level High; for APTT / Bas / Eos / Fbg / Hb / Ht / Lym / MCH / MCHC / MCV / Mono / Neu / PT / Plat / RBC / Ret / WBC: tissue Blood; for KIDNEY_L / KIDNEY_R / KIDNEY_TOTAL: tissue Kidney; for LIVER: tissue Liver; for A/G / ALP / ALT / AST / BUN / CRE / Ca / Cl / DBIL / GLC / IP / K / LDH / Na / PL / RALB / TBIL / TC / TG / TP / gamma-GTP: tissue Plasma

`Nc1nc(N)c2nc(-c3ccccc3)c(N)nc2n1` gave a TERMINAL_BW (9 h) of 205.8 g, an APTT (9 h) of 17.3 s and a Bas (9 h) of 0.2%. The Eos (9 h) was 1%, the Fbg (9 h) was 347 mg/dL and the Hb (9 h) was 14.4 g/dL. For the same compound, the Ht (9 h) was 43.5%, the Lym (9 h) was 71.4% and the MCH (9 h) was 20.9 pg. It also gave an MCHC (9 h) of 33.1%, an MCV (9 h) of 63.1 fL and a Mono (9 h) of 2.2%. It also gave a Neu (9 h) of 25%, a PT (9 h) of 13.9 s and a Plat (9 h) of 118.6 x10_4/uL. For the same compound, the RBC (9 h) was 689.4 x10_4/ul, the Ret (9 h) was 7.6% and the WBC (9 h) was 77.8 x10_2/uL. It also gave a KIDNEY_L (9 h) of 1 g, a KIDNEY_R (9 h) of 1 g and a KIDNEY_TOTAL (9 h) of 2 g. For the same compound, the LIVER (9 h) was 8.3 g, the A/G (9 h) was 1 and the ALP (9 h) was 1443.6 IU/L. The ALT (9 h) was 35.2 IU/L, the AST (9 h) was 73.4 IU/L and the BUN (9 h) was 12.6 mg/dL. It also gave a CRE (9 h) of 0.2 mg/dL, a Ca (9 h) of 11.1 mg/dL and a Cl (9 h) of 105.4 meq/L. The DBIL (9 h) was 0.01 mg/dL, the GLC (9 h) was 165.2 mg/dL and the IP (9 h) was 10.6 mg/dL. For the same compound, the K (9 h) was 5 meq/L, the LDH (9 h) was 57.8 IU/L and the Na (9 h) was 141.4 meq/L. It also gave a PL (9 h) of 139 mg/dL, an RALB (9 h) of 2.9 g/dL and a TBIL (9 h) of 0.066 mg/dL. The TC (9 h) was 79.4 mg/dL, the TG (9 h) was 30.2 mg/dL and the TP (9 h) was 5.9 g/dL. It also gave a gamma-GTP (9 h) of 1.2 IU/L, a TERMINAL_BW (24 h) of 222.9 g and an APTT (24 h) of 17.6 s. The Bas (24 h) was 0.2%, the Eos (24 h) was 0.8% and the Fbg (24 h) was 366.6 mg/dL. The Hb (24 h) was 14.4 g/dL, the Ht (24 h) was 42.7% and the Lym (24 h) was 80.8%. For the same compound, the MCH (24 h) was 21.7 pg, the MCHC (24 h) was 33.7% and the MCV (24 h) was 64.4 fL. For the same compound, the Mono (24 h) was 2.4%, the Neu (24 h) was 15.4% and the PT (24 h) was 13.7 s. The Plat (24 h) was 121.5 x10_4/uL, the RBC (24 h) was 662.8 x10_4/ul and the Ret (24 h) was 6.2%. For the same compound, the WBC (24 h) was 84.4 x10_2/uL, the KIDNEY_L (24 h) was 1 g and the KIDNEY_R (24 h) was 1 g. The KIDNEY_TOTAL (24 h) was 2 g, the LIVER (24 h) was 10.2 g and the A/G (24 h) was 0.9. For the same compound, the ALP (24 h) was 1697.4 IU/L, the ALT (24 h) was 43 IU/L and the AST (24 h) was 67.4 IU/L. The BUN (24 h) was 18 mg/dL, the CRE (24 h) was 0.2 mg/dL and the Ca (24 h) was 11.2 mg/dL. It also gave a Cl (24 h) of 106.2 meq/L, a DBIL (24 h) of 0.01 mg/dL and a GLC (24 h) of 175.4 mg/dL. For the same compound, the IP (24 h) was 8.4 mg/dL, the K (24 h) was 4.4 meq/L and the LDH (24 h) was 66.6 IU/L. For the same compound, the Na (24 h) was 143.8 meq/L, the PL (24 h) was 158 mg/dL and the RALB (24 h) was 2.7 g/dL. The TBIL (24 h) was 0.038 mg/dL, the TC (24 h) was 85.2 mg/dL and the TG (24 h) was 96.6 mg/dL. The TP (24 h) was 5.6 g/dL and the gamma-GTP (24 h) was 1 IU/L.
